Results taken from article PMC11336422, “Oligoarginine peptide structure and its effect on cell penetration in ocular drug delivery” (Heliyon, 2024).
Like-named read-outs stand apart in the source and are kept apart here. Peptide text beside a SMILES is read from it.

How the values were obtained:
[1] = system: Escherichia coli (E. coli) ATCC25922; type: cell-based
Method: (§1) A broth microdilution assay was performed to determine the minimum inhibitory concentration (MIC) for the oligoarginine peptides. Escherichia coli (E. coli) ATCC25922 and Staphylococcus aureus (S. aureus) ATCC6538 were used as model organisms for Gram-negative and Gram-positive bacteria, respectively. Both strains were cultured in LB broth for ∼18 h overnight at 37 °C and shaking set to 180 RPM. The culture was diluted to obtain a 0.01 optical density (OD) bacterial suspension in LB. Using a 96-well plate, oligoarginine concentrations ranging from 1 mM to 0.001 mM were obtained, and each peptide concentration was tested against both bacterial strains. The bacteria were incubated overnight at 37 °C for 18 h, and the lowest concentration of the treatment with no visible bacterial growth was recorded as the MIC of the respective oligoarginine treatment.

[2] = system: Staphylococcus aureus (S. aureus) ATCC6538; type: cell-based
Method: as §1

[3] = LB broth, 1 mM to 0.001 mM, 18 h at 37 °C, no visible growth, average ± SEM, n = 9

Structure (SMILES) | E. coli MIC [1, 3] | S. aureus MIC [2, 3] | E. coli MIC ([1]; ATCC25922, 18 h) | S. aureus MIC ([2]; ATCC6538, 18 h)
N=C(N)NCCC[C@H](NC(=O)[C@H](CCCNC(=N)N)NC(=O)[C@H](CCCNC(=N)N)NC(=O)[C@H](CCCNC(=N)N)NC(=O)[C@H](CCCNC(=N)N)NC(=O)[C@H](CCCNC(=N)N)NC(=O)[C@H](CCCNC(=N)N)NC(=O)[C@H](CCCNC(=N)N)NC(=O)[C@H](CCCNC(=N)N)NC(=O)[C@H](CCCNC(=N)N)NC(=O)[C@H](CCCNC(=N)N)NC(=O)[C@@H](N)CCCNC(=N)N)C(=O)O [R12] | 940 ± 160 µM | 610 ± 220 µM | – | –
N=C(N)NCCC[C@H](NC(=O)[C@H](CCCNC(=N)N)NC(=O)[C@H](CCCNC(=N)N)NC(=O)[C@H](CCCNC(=N)N)NC(=O)[C@H](CCCNC(=N)N)NC(=O)[C@@H](N)CCCNC(=N)N)C(=O)O [R6] | – | – | > 1000 µM | > 1000 µM
N=C(N)NCCC[C@H](NC(=O)[C@H](CCCNC(=N)N)NC(=O)[C@H](CCCNC(=N)N)NC(=O)[C@H](CCCNC(=N)N)NC(=O)[C@H](CCCNC(=N)N)NC(=O)[C@H](CCCNC(=N)N)NC(=O)[C@H](CCCNC(=N)N)NC(=O)[C@H](CCCNC(=N)N)NC(=O)[C@@H](N)CCCNC(=N)N)C(=O)O [R9] | – | – | > 1000 µM | 1000 µM
N=C(N)NCCC[C@H](NC(=O)[C@H](CCCNC(=N)N)NC(=O)[C@@H](N)CCCNC(=N)N)C(=O)O [R3] (H-Arg-Arg-Arg-OH) | – | – | > 1000 µM | > 1000 µM
